Test results published in patent US8076318B2, “Caged ligands and uses thereof” (priority 2002, dated 2011).

Legend:
[1] = tested on: EcR/RXR; assay: Luciferase expression in transiently transfected 293T cells with and without 1 min illumination; format: cell-based; conditions: for Fold luciferase induction / Activity as inducing agent in the luciferase-based gene expression system (in words): 293T cells; for Fold luciferase induction: culture media/2% MeOH; for Activity as inducing agent in the luciferase-based gene expression system (in words): without light
Excerpt: Plasmid Description. The luciferase reporter (E/GRE)6TK81LUC consists of multimeric E/GRE binding sites from (E/GRE)4ΔMTVLuc linked to the minimal TK promoter in the pA3LUC reporter plasmid. The modified MMTV promoter from MMTVp206 that incorporates the 5′UTR of v-Ha-ras was inserted into a vector containing a modified ecdysone receptor VgEcR (a gift from R. Evans) to form MMTV-VgEcR.
Cell Culture, DNA Transfection, and Luciferase Assays. Cell culture, DNA transfection, and luciferase assays were performed as previously described (Wantanable et al., 1966). Briefly, 293-derived BOSC cells (293T) were seeded into individual wells of a 24 well plate and maintained in Dulbecco's modified Eagles medium with 10% fetal calf serum and 1% penicillin/streptomycin. Cells were transiently transfected with pVgEcR/RXRα and (E/GRE)6TKLUC via a standard calcium phosphate method. The media was changed after 14 hr and the cells treated with 10 μL of 5 mM β-ecdysone 1 (FIG. 1) in methanol (to furnish a 100 μM final concentration of ecdysteroid). Cells were either left un-illuminated or illuminated for 1 min using an Oriel 200 W Hg arc lamp (model 6283) with a 348 nm filter (Oriel, lot number 51260, 50% internal transmittance at 348 nm and cutoff at <325 nm) to remove short wavelength light and two IR filters to remove heat. Cells were subsequently lysed as previously described and the luciferase assay performed at room temperature using an Autolumat LB 953 (EG & G, Berthold). Luciferase content was measured by calculating the light emitted during 10 sec of the reaction. The values are expressed in arbitrary light units.
Light-Driven Luciferase Expression in Transiently Transfected 293T Cells. We employed a luciferase-based expression system to examine the biological activity of β-ecdysone and its alkylated analog 4. The 293T cell line was transiently transfected to constitutively express EcR/RXR and inducibly express (upon exposure to β-ecdysone) luciferase. Compound 4 was added to the transfected 293T cells, the cell culture subsequently illuminated, and luciferase activity assessed (Table 1). There is little observable luciferase activity with culture media alone. Exposure of the cells to the bioactive β-ecdysone 1 generates a nearly 90-fold induction of luciferase. By contrast, the caged analog 4 furnishes a slight 6-fold induction of activity over that of culture media alone. […] The latter is consistent with our observation that a 1 min photolysis time window converts approximately 60% of the caged derivative 4 into its bioactive counterpart 1. Finally, illumination in the absence of ligand fails to induce luciferase production.

[2] = tested on: EcR/RXR; assay: Immunodetection of intracellularly expressed luciferase, spot illumination; format: cell-based; conditions: 293T cells; for Luciferase expression by immunofluorescence, without illumination: 100 μM, 16 hr incubation, no light; for Luciferase expression by immunofluorescence after spot illumination: 4 washed out, spot illuminated (~0.25 mm^2) 10 sec, 6 hr incubation
Protocol: Immunodetection of Intracellularly Expressed Luciferase. 293T cells were transferred to the individual wells of a 24-well culture plate (Becton Dickinson Labware, lot #353047) and transfected as described above. The cells were then incubated with either 100 μM β-ecdysone or 100 μM caged β-ecdysone for 16 hr. The medium was removed and the cells washed once with PBS before addition of an ecdysteroid free medium. The surface of the pre-scored wells was spot illuminated (˜0.25 mm^2) for 10 sec on a light microscope using a 100 W Hg-Arc lamp through an Olympus UAPO 20×/0.40 objective. The cells were then incubated for 6 hr, fixed with 4% formaldehyde in PBS for 60 min, washed with PBS 3×5 min, permeabilized with 0.1% TritonX100 for 10 min, washed with PBS 3×5 min, and blocked with 1% normal donkey serum (Jackson ImmunoResearch catalog #017-000-121) in PBS for 45 min. The cells were subsequently exposed to 300 μL of anti-luciferase pAb (polyclonal goat antibody, Promega, lot #149040) at a concentration of 40 μg/mL in 1% donkey serum in PBS. After incubation for 2 hr at room temperature in a humidified chamber, the cells were washed with PBS 3×15 min and exposed to 300 μL of an Alexa Fluor 568-labeled rabbit anti-goat IgG (20 μg/mL in 1% donkey serum/PBS for 1 hr, Molecular Probes, catalog #A-11079). Unbound antibody was removed by washing with PBS 3×15 min and the cells treated with 300 μL of mounting medium (N-propyl gallate at 6 mg/mL in 1:1 glycerol:PBS). Images were taken using an Olympus IX-70 microscope equipped with a CCD camera.
Light-Driven Spatially-Discrete Luciferase Expression in Transiently Transfected 293T Cells. We examined whether the combination of 4 and spot illumination induces gene activation in a spatially discrete fashion. Transiently transfected 293T cells were incubated with 1 for 16 hr, fixed, permeabilized, exposed to a luciferase antibody, and stained with an Alexa-labeled secondary antibody. […] 293T cells were also exposed to 4, the media replaced with fresh media to remove extracellular 4, and spot illuminated (˜0.25 mm^2) for 10 sec. The cells were then returned to the incubator for 6 hr and subsequently analyzed for luciferase expression.
However, if photo-uncaged intracellular β-ecdysone does migrate to the extracellular environment then it is possible that sites distant from the region of illumination could undergo unintentional gene activation as well. On the other hand, given the small intracellular volume of a typical cell (˜1 pL) it is likely that any uncaged β-ecdysone that escapes from its intracellular locale will be too dilute to effect changes in gene expression profiles at remote sites. We explicitly addressed this possibility by examining spatially-discrete gene activation using spot illumination of cultured 293T cells. Luciferase expression in fixed and permeabilized cells was visually identified via the coupled use of a luciferase antibody and a secondary Alexa-labeled antibody. […] Luciferase expression is not observed in the absence of β-ecdysone (data not shown) nor in the presence of caged β-ecdysone without light (see below). […] Regions outside of the zone of illumination fail to display luciferase expression.

[3] = tested on: EcR/RXR; assay: Time-dependent luciferase assays after photolysis, with or without washing out extracellular ligand; format: cell-based
Protocol: Time-dependent luciferase assays. 293T cells were split in a 24-well culture plate (Becton Dickinson Labware, lot #353047) and were transfected by a calcium phosphate method. The cells in 500 μL culture medium were incubated with either 100 μM caged β-ecdysone, 100 μM β-ecdysone, or absent an ecdysteroid ligand. After the cells were incubated with caged β-ecdysone for 16 hours, the medium was removed and washed with PBS once. A fresh medium free of ligand was then immediately added just prior to UV light exposure for 1 min. In the “Caged+hv” experiment, the caged β-ecdysone ligand remained in the medium and these cells were likewise illuminated for 1 min. Cells that were not exposed to ecdysteroid ligand were treated in an otherwise analogous fashion. The cells were then returned to the incubator for various time intervals. Incubation was terminated by treating cells with an extraction buffer (1% Triton X-100 and 1 mM DTT in GME). Luciferase activity was preformed as described above.
Cells were pre-incubated with the caged β-ecdysone 4 for 16 hr, illuminated for 1 min, and then lysed at various time points following photolysis. […] The 293T cell line was pre-incubated with 4 for 16 hr, the media subsequently removed, and the cells washed with PBS. Ecdysone-free media was then added, the cell culture incubated for various time points, and tested for luciferase activity. The gene expression kinetic profile is nearly identical for the two sets of experiments [(4+photolysis) versus (4+washing+photolysis)] during the first 5 hr, which is consistent with the notion that caged β-ecdysone 4 is intracellularly liberated (FIG. 3).
What is the time-dependence of β-ecdysone-induced luciferase expression? We addressed this question by pre-incubating 293T cells with the caged derivative 4 for 16 hr followed by illumination for 1 min. Cells were subsequently incubated for various time intervals, lysed, and luciferase activity assessed. […]

[4] = Photolysis of caged β-ecdysone 4, HPLC analysis and ferrioxalate actinometry; format: physicochemical; conditions: ferrioxalate actinometry, HPLC peak areas
Protocol: Photolysis of Caged β-ecdysone 4. A 500 μL 100 μM solution of 4 in 2% methanol/98% water was placed in a 24-well culture plate. Photolysis was performed using an Oriel 200 W Hg arc lamp (model 6283) with a 348 nm filter (Oriel, lot number 51260; 50% internal transmittance at 348 nm and cutoff at 325 nm) to remove short wavelength light and an IR filter to remove heat. Aliquots of 10 μL were removed at different time points of photolysis and were analyzed by analytical HPLC (monitored at 242 nm) employing a Vydac C4 (250 mm×3.0 mm) column and using the following solvent system: a linear gradient from 95% A (water):5% B (acetonitrile) to 50% A (water):50% (acetonitrile) over 15 min followed by 50% A (water):50% B (acetonitrile) for 5 min with flow rate at 1 mL/min.
Photoconversion of Caged β-Ecdysone 4 to β-Ecdysone 1. A preliminary assessment of the light-induced conversion of the caged analog 4 to β-ecdysone 1 was performed using a 24-well plate system. […] Aliquots from the wells were subsequently analyzed by HPLC to assess formation of 1 (data not shown). […] The photochemical quantum yield (φ=0.034) was determined using ferrioxalate actinometry (Hatchard & Parker, 1956) according to the equation φ=ΔP/(I×t), where t is the irradiation time, ΔP is the amount of photolabile converted, and was determined using HPLC peak areas.

[5] = tested on: ecdysone-inducible gene expression system; conditions: cell-based systems; No et al., 1996; Albanese et al., 2000; cited from earlier work
[6] = 100 μM ecdysteroid, not illuminated, versus culture media alone
[7] = 293T cells pre-incubated 16 hr with 4, illuminated 1 min

With `COc1cc(COC2CC3(C)C(CC2O)C(=O)C=C2C3CCC3(C)C(C(C)(O)C(O)CCC(C)(C)O)CCC23O)c([N+](=O)[O-])cc1OC` (stereo not drawn) [caged β-ecdysone 4] the “Luciferase expression relative to that displayed by β-ecdysone 1” value ([1]; 293T cells treated with 4, 1 min photolysis) was “approximately 60%”, the Fold luciferase induction [1, 6] was 6 fold and the Fold luciferase induction ([1]; 100 μM ecdysteroid, not illuminated, versus culture media alone, listed as caged β-ecdysome 4) was 6.5 ± 0.1 fold. The Fold luciferase induction ([1]; 100 μM, 1 min hν (348 nm filter, Hg arc lamp)) was 50 ± 4 fold, the “Activity as inducing agent in the luciferase-based gene expression system (in words)” value [1] was “virtually inactive” and the “Activity as inducing agent in the luciferase-based gene expression system (in words)” value ([1]; listed as caged ecdysteroid) was “nearly inactive”. For the same compound, the “Luciferase expression by immunofluorescence, without illumination” value (shortened to “Luciferase expression … without illumination”) [2] was “failed to exhibit detectable luciferase expression”, the “Luciferase expression by immunofluorescence after spot illumination” value [2] was “spatially discrete luciferase expression is observed” and the “Luciferase expression by immunofluorescence after spot illumination” value ([2]; listed as 4) was “Only those regions exposed to UV light display luciferase production”. For the same compound, the “Luciferase activity relative to maximal activity displayed by β-ecdysone” value ([3]; 4 + washing (extracellular 4 removed) + 1 min photolysis) was 50%, the “Post-illumination time at which minimal luciferase activity was first observed” value [3, 7] was 4 h and the “Time of maximal gene (luciferase) expression after photolysis” value [3, 7] was 16 h. The “Photochemical quantum yield φ” value [4] was 0.034.
For `CC(C)CC[C@@H](O)[C@](C)(O)[C@H]1CC[C@@]2(O)C3=CC(=O)[C@]4(O)C[C@@H](O)[C@@H](O)C[C@]4(C)[C@H]3[C@H](O)C[C@]12C` [muristerone 6, muristerone], the “Activity relative to β-ecdysone” value [5] is listed as 1,000 times.
For `CC(C)CC[C@@H](O)[C@](C)(O)[C@H]1CC[C@@]2(O)C3=CC(=O)[C@@H]4C[C@@H](O)[C@@H](O)C[C@]4(C)[C@H]3CC[C@]12C` [ponasterone A 7, ponasterone A], the “Activity relative to β-ecdysone” value [5] is given as 1,000 times.
For `CC(C)(O)CC[C@@H](O)[C@](C)(O)[C@H]1CC[C@@]2(O)C3=CC(=O)[C@@H]4C[C@@H](O)[C@@H](O)C[C@]4(C)[C@H]3CC[C@]12C` [β-ecdysone 1, β-ecdysone, reference compound], the Fold luciferase induction [1, 6] was 88 ± 9 fold, the Fold luciferase induction ([1]; 100 μM ecdysteroid, not illuminated, versus culture media alone, listed as β-ecdysone) was roughly 100 fold and the “Luciferase expression … without illumination” value [2] was “global luciferase expression throughout the cell culture”. For the same compound, the “Luciferase expression … without illumination” value ([2]; listed as 1) was “luciferase expression (20% transfection efficiency) was observed throughout the general cell population”.
